Test results from US20260103471A1, “CYCLIC UREA THIAZOLYL COMPOUNDS FOR TREATMENT OF HSV” (Assembly Biosciences, Inc., priority 2022, published 2026).
pEC50: −log10 of the molar value. Read-outs that look alike come from different tables or passages of the source.

How the values were obtained:
HSV-1 = HSV-1 Antiviral Assay (Vero cells, cell viability); type: cell-based; conditions: Human alphaherpesvirus 1, 96 h, Vero cells, read-out: HSV-1 EC50
Outline: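 Vero cells (2.5×10^3/well) received 8-point 3-fold compound dilutions in 2% FBS medium (0.5% DMSO), then 80 TCID50 HSV-1. After 4 days at 37 °C, cell viability was measured by CellTiter-Glo luminescence.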

HSV-2 G strain = test: HSV-2 Antiviral Assay (Vero cells, cell viability); type: cell-based; conditions: Human alphaherpesvirus 2, Vero, 120 h, Vero cells, 5 days
Outline: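 Vero cells (1.0×10^4/well, attached overnight) given 8-point 3-fold compound dilutions (0.5% DMSO) then infected with 160 TCID50 HSV-2 G strain in 2% FBS medium for 5 days at 37 °C. Protection read as cell viability by WST-8 absorbance at 460 and 620 nm after 3 h.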

[1] = 80 TCID50 HSV-1, 4 days, cell viability
[2] = 160 TCID50 HSV-2 G strain, cell viability

| Compound | pEC50 (HSV-1; [1]) | pEC50 (HSV-2 G strain; [2]) | pEC50 (HSV-1; 4 days) | pEC50 (HSV-2 G strain) |
| --- | --- | --- | --- | --- |
| Cc1nc(N2CCCN(c3ccc(-c4ccc(C#CC(C)(C)O)cc4)cc3)C2=O)sc1S(N)(=O)=O [Compound 28] | 5.30 to 6.00 | 5.30 to 6.00 |  |  |
| Cc1nc(N2CCCN(c3ccc(-c4cc(F)ccc4F)cc3)C2=O)sc1[S@](C)(=N)=O (single isomer, unassigned) [Compound 141] | > 7.00 | > 7.00 |  |  |
| Cc1nc(N2CCCN(c3ccc(-c4cc(F)cc5nsnc45)cc3)C2=O)sc1S(N)(=O)=O [Compound 259] | > 7.00 | > 7.00 |  |  |
| Cc1nc(N2CCCN(c3ccc(-c4cc(F)ccc4C#N)cc3)C2=O)sc1S(N)(=O)=O [Compound 24] | > 7.00 | > 7.00 |  |  |
| C#Cc1ccc(F)c(-c2ccc(N3CCCN(c4nc(C)c(S(N)(=O)=O)s4)C3=O)cc2)c1 [Compound 17, 2-(3-(5′-Ethynyl-2′-fluoro-[1,1′-biphenyl]-4-yl)-2-oxotetrahydropyrimidin-1(2H)-yl)-4-methylthiazole-5-sulfonamide] | > 7.00 | > 7.00 |  |  |
| Cc1nc(N2CCN(c3ccc(-c4cc(F)ccc4F)cc3)C2=O)sc1S(N)(=O)=O [Example 104] |  |  | 5.76 | < 5.70 |
| Cc1csc(-c2ccc(N3CCCN(c4nc(C)c(S(N)(=O)=O)s4)C3=O)cc2)n1 [Compound 43] | > 7.00 | > 7.00 |  |  |
| CNS(=O)(=O)c1sc(N2CCCN(Cc3cccc(-c4ccccc4)c3)C2=O)nc1C [Compound 182] | > 7.00 | > 7.00 |  |  |
| Cc1nc(N2CCCN(c3cccc(-c4cc(F)ccc4F)c3)C2=O)sc1S(N)(=O)=O [Compound 16] | 6.00 to 7.00 | 6.00 to 7.00 |  |  |
| Cc1nc(N2CCCN(c3ccc(-c4cc(F)cc(-c5cncs5)c4F)cc3)C2=O)sc1S(N)(=O)=O [Compound 211] | > 7.00 | > 7.00 |  |  |
| Cc1nc(N2CCCCN(c3ccc(-c4ccccc4F)cc3)C2=O)sc1S(N)(=O)=O [Compound 102] | > 7.00 | > 7.00 |  |  |
| CNS(=O)(=O)c1sc(N2CCCN(c3ccc(-c4cccc(N)n4)cc3)C2=O)nc1C [Compound 123] | > 7.00 | > 7.00 |  |  |
| Cc1nc(N2CC3(COC3)CN(c3ccc(-c4cc(F)ccc4F)cc3)C2=O)sc1S(N)(=O)=O [Compound 339, 2-(8-(2′,5′-difluoro-[1,1′-biphenyl]-4-yl)-7-oxo-2-oxa-6,8-diazaspiro[3.5]nonan-6-yl)-4-methylthiazole-5-sulfonamide] | > 7.00 | > 7.00 |  |  |
| Cc1nc(N2CCCN(c3ccc(-c4cc(F)cc5nnsc45)cc3)C2=O)sc1S(N)(=O)=O [Compound 243] | > 7.00 | > 7.00 |  |  |
| Cc1nc(N2CCCN(c3ccc(-c4cccc(F)c4)cc3)C2=O)sc1S(N)(=O)=O [Compound 13] | > 7.00 | > 7.00 |  |  |
| CNS(=O)(=O)c1sc(N2CCCN(c3ccc(-c4ccccc4F)cc3F)C2=O)nc1C [Compound 130] | > 7.00 | > 7.00 |  |  |
| Cc1nc(N2CCCN(c3ccc(-c4cc(F)cc(-c5cnn(C)c5)c4F)cc3)C2=O)sc1S(N)(=O)=O [Compound 210] | > 7.00 | > 7.00 |  |  |
| Cc1nc(N2CCCN(c3ccc(-c4cc(Br)ccc4F)cc3)C2=O)sc1S(N)(=O)=O [Compound 25] | > 7.00 | > 7.00 |  |  |
| Cc1nc(N2CCCN(c3ccc(-c4cccc5[nH]c(=O)sc45)cc3)C2=O)sc1S(N)(=O)=O [Compound 78] | 6.00 to 7.00 | 6.00 to 7.00 |  |  |
| Cc1nc(N2CCCN(c3ccc(-c4cc(F)cc5nonc45)cc3)C2=O)sc1S(N)(=O)=O [Compound 245] | > 7.00 | > 7.00 |  |  |
| Cc1nc(N2CCCN(c3ccc(-c4cc(F)cc(F)n4)cc3)C2=O)sc1S(N)(=O)=O [Compound 235, 2-(3-(4-(4,6-difluoropyridin-2-yl)phenyl)-2-oxotetrahydropyrimidin-1(2H)-yl)-4-methylthiazole-5-sulfonamide] | > 7.00 | > 7.00 |  |  |
| Cc1nc(N2CCCN(c3ccc(-c4cc(F)ccn4)cc3)C2=O)sc1S(N)(=O)=O [Compound 36] | > 7.00 | > 7.00 |  |  |
| CNS(=O)(=O)c1sc(N2CCCN(c3ccc(-c4nccs4)cc3)C2=O)nc1C [Compound 126] | > 7.00 | > 7.00 |  |  |
| Cc1nc(N2C[C@H](C(C)(C)O)CN(c3ccc(-c4cc(F)ccc4F)cc3)C2=O)sc1S(N)(=O)=O (single isomer, unassigned) [Compound 343] | > 7.00 | > 7.00 |  |  |

Further lines, results first:

| pEC50 (HSV-1; [1]) | pEC50 (HSV-2 G strain; [2]) | pEC50 (HSV-1; 4 days) | pEC50 (HSV-2 G strain) | Compound |
| --- | --- | --- | --- | --- |
| > 7.00 | > 7.00 |  |  | Cc1nc(N2CCCN(c3ccc(-c4ccccn4)cc3)C2=O)sc1S(N)(=O)=O [Compound 1, 4-Methyl-2-(2-oxo-3-(4-(pyridin-2-yl)phenyl)tetrahydropyrimidin-1(2H)-yl) thiazole-5-sulfonamide] |
| > 7.00 | > 7.00 |  |  | Cc1nc(N2CCCN(Cc3cccc(-c4ccccc4)c3)C2=O)sc1S(N)(=O)=O [Compound 173] |
| 6.00 to 7.00 | 6.00 to 7.00 |  |  | Cc1nc(N2CCCN(c3ccc(-c4cc(F)ccc4F)cc3)C2=O)sc1[S@@](C)(=N)=O (single isomer, unassigned) [Compound 140] |
| > 7.00 | > 7.00 |  |  | C#Cc1ccc(F)cc1-c1ccc(N2CCCN(c3nc(C)c(S(N)(=O)=O)s3)C2=O)cc1 [Compound 18] |
| > 7.00 | > 7.00 |  |  | CNS(=O)(=O)c1sc(N2CCCCN(c3ccc(-c4ccccn4)cc3)C2=O)nc1C [Compound 138] |
| > 7.00 | > 7.00 |  |  | Cc1nc(N2CCCN(c3ccc(-c4ccccn4)cc3)C2=O)sc1S(=O)(=O)NC1CC1 [Compound 119] |
| > 7.00 | > 7.00 |  |  | Cc1nc(N2C[C@@H](C)CN(c3ccc(-c4ccccc4Cl)cc3)C2=O)sc1S(N)(=O)=O (single isomer, unassigned) [Compound 323] |
| > 7.00 | > 7.00 |  |  | Cc1nc(N2CCCN(Cc3cccc(-c4cc(F)ccc4F)c3)C2=O)sc1S(N)(=O)=O [Compound 172, 2-(3-((2′,5′-Difluoro-[1,1′-biphenyl]-3-yl)methyl)-2-oxotetrahydropyrimidin-1(2H)-yl)-4-methylthiazole-5-sulfonamide] |
| 6.00 to 7.00 | 6.00 to 7.00 |  |  | Cc1nc(N2CCCN(c3ccc(-c4ncco4)cc3)C2=O)sc1S(N)(=O)=O [Compound 41] |
| > 7.00 | > 7.00 |  |  | Cc1nc(N2CCCN(c3ccc(-c4snc5ccccc45)cc3)C2=O)sc1S(N)(=O)=O [Compound 305] |
| > 7.00 | > 7.00 |  |  | CNS(=O)(=O)c1sc(N2CCCN(c3ccc(-c4ccccn4)cc3)C2=O)nc1C [Compound 118] |
| > 7.00 | > 7.00 |  |  | Cc1nc(N2CCCN(c3ccc(-c4cc(F)cc5c4cc(C#N)n5C)cc3)C2=O)sc1S(N)(=O)=O [Compound 293] |
| > 7.00 | > 7.00 |  |  | Cc1nc(N2CCCN(c3ccc(-c4cccc5cc(C#N)sc45)cc3)C2=O)sc1S(N)(=O)=O [Compound 274] |
| > 7.00 | > 7.00 |  |  | Cc1nc(N2CCCN(c3ccc(-c4ccccc4C(F)F)cc3)C2=O)sc1S(N)(=O)=O [Compound 12] |
| > 7.00 | > 7.00 |  |  | Cc1nc2cccc(-c3ccc(N4CCCN(c5nc(C)c(S(N)(=O)=O)s5)C4=O)cc3)c2s1 [Compound 68] |
| > 7.00 | > 7.00 |  |  | CNS(=O)(=O)c1sc(N2CCCN(c3ccc(-c4cc(F)ccc4F)cc3)C2=O)nc1C [Compound 116, 2-(3-(2′,5′-Difluoro-[1,1′-biphenyl]-4-yl)-2-oxotetrahydropyrimidin-1(2H)-yl)-N,4-dimethylthiazole-5-sulfonamide] |
| > 7.00 | > 7.00 |  |  | Cc1nc(N2CC(C)CN(c3ccc(-c4cc(F)ccc4F)cc3)C2=O)sc1S(N)(=O)=O (centres unmarked) [Compound 318] |
| > 7.00 | > 7.00 |  |  | Cc1nc(N2CCCN(c3ccc(-c4cc(Cl)cc5ncsc45)cc3)C2=O)sc1S(N)(=O)=O [Compound 277] |
| 6.00 to 7.00 | 6.00 to 7.00 |  |  | Cc1nc(N2CCCN(c3ccc(-c4cc(F)ccc4F)cc3)C2=O)sc1S(=O)(=O)C1CC1 [Compound 163] |
| > 7.00 | > 7.00 |  |  | Cc1nc(N2CCCN(c3ccc(-c4nsc5ccccc45)cc3)C2=O)sc1S(N)(=O)=O [Compound 310] |
| 5.30 to 6.00 | 5.30 to 6.00 |  |  | Cc1nc(N2CCCN(c3ccc(-c4ccc5ncn(C)c5c4)cc3)C2=O)sc1S(N)(=O)=O [Compound 75] |
| > 7.00 | > 7.00 |  |  | Cc1nc(N2CCCN(c3ccc(-c4cccc(F)c4F)cc3)C2=O)sc1S(N)(=O)=O [Compound 6] |
| > 7.00 | > 7.00 |  |  | Cc1nc(N2CCCN(c3ccc(-c4cc(F)ccc4F)cc3)C2=O)sc1S(N)(=O)=O [Compound 5] |
| > 7.00 | > 7.00 |  |  | Cc1nc(N2CCCN(c3ccc(-c4cc(F)cc5ncsc45)cc3)C2=O)sc1S(N)(=O)=O [Compound 255] |
| 5.30 to 6.00 | 5.30 to 6.00 |  |  | Cc1nc(N2CCCN(c3ccc(-c4cccc5nn(C(C)C)cc45)cc3)C2=O)sc1S(N)(=O)=O [Compound 59] |
| > 7.00 | > 7.00 |  |  | COCc1ccc(F)cc1-c1ccc(N2CCCN(c3nc(C)c(S(N)(=O)=O)s3)C2=O)cc1 [Compound 209] |
| > 7.00 | > 7.00 |  |  | Cc1nc(N2CC(F)CN(c3ccc(-c4cc(F)ccc4F)cc3)C2=O)sc1S(N)(=O)=O (centres unmarked) [Compound 363] |
| 5.30 to 6.00 | 5.30 to 6.00 |  |  | Cc1nc(N2CCCN(C(C)c3cccc(-c4cc(F)ccc4F)c3)C2=O)sc1S(N)(=O)=O (centres unmarked) [Compound 174, 2-(3-(1-(2′,5′-Difluoro-[1,1′-biphenyl]-3-yl)ethyl)-2-oxotetrahydropyrimidin-1(2H)-yl)-4-methylthiazole-5-sulfonamide] |
